Entries after “also recorded” stand apart in the source; their conditions may differ.
Experiments:
[1] = biological target: T1, STING (Mus musculus, UniProt Q3TBT3); test: Cytokine secretion (ELISA) from DMXAA-activated splenocytes; type: cell-based, C57BL/6 mice; design: Splenocytes were recovered from C57BL/6 WT female mice; endogenous in cells; host or cells: primary splenocytes of C57BL/6 mice
T1 sequence (Q3TBT3 1-378): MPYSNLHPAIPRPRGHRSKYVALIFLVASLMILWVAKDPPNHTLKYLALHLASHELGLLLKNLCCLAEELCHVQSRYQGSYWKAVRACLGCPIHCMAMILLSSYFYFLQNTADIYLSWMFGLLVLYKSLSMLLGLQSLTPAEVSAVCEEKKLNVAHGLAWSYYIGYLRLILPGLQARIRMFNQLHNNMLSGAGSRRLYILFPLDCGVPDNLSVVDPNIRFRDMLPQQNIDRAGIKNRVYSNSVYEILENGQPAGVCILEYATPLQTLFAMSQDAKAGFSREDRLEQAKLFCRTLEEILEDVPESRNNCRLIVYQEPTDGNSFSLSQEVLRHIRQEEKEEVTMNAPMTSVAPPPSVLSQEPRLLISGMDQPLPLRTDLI
Procedure: FIGS. 1A-1B include bar graphs showing that Cluster 1 and 9 inhibit tumor necrosis factor alpha (TNFα) while only cluster 1 promotes IL-10 secretion from resting splenocytes activated by the selective STING agonist DMXAA. Splenocytes were recovered from C57BL/6 WT or STING^−/− female mice and were incubated (1×10^6 cells in 0.5 mL of culture media) overnight with a premade mixture of the individual compounds in each cluster (5-500 nM) or vehicle, and DMXAA (10 μM). Next, culture supernatants were collected and TNFα(1A) or IL-10 (1B) levels were determined by standard enzyme-linked immunosorbent assay ELISA (Biolegend).
FIGS. 2A-2D include graphs showing that compounds 5.9 and 7.9 inhibit TNFα and IL-10 secretion from DMXAA-activated splenocytes. Splenocytes were recovered from C57BL/6 WT female mice and incubated (1×10^6 cells in 0.5 mL of culture media) overnight with the individual compounds from cluster 9 (50-5,000 nM) or vehicle and DMXAA (5-10 μM; 2A-2B) or at 5,000 nM without DMXAA (2C-2D). Next, culture supernatants were collected and TNFα (2A, and 2C) or IL-10 (2B, and 2D) levels were determined by standard ELISA. In 2A-2B, black horizontal line indicates secretion level from vehicle-treated cells.
FIGS. 3A-3H include graphs and an image showing that compounds 2.1, 4.1, and 6.1 inhibit TNFα but promote IL-10 and IFN-beta secretion from DMXAA-activated splenocytes. Splenocytes were recovered from C57BL/6 WT female mice and incubated (1×10^6 cells in 0.5 mL of culture media) overnight with the individual compounds from cluster 1 (50-5,000 nM) or vehicle and DMXAA (10 μM; 3A, 3C, and 3E) or at 5,000 nM without DMXAA (3B, 3D, and 3F). Next, culture supernatants were collected and TNFα (3A-3B), IL-10 (3C-3D), or IFN-beta (3E-3F) levels were determined by standard ELISA. In 3A, 3C, and 3E, black horizontal line indicates secretion level from vehicle-treated cells. (3G-3H) Biased STING agonists (BiSTs) enhance DMXAA-induced STING signaling. Splenocytes were treated with 25 μg/ml DMXAA and 50 nM of compound 2.1 for 1-4 hr (3G). Then, the cells were analyzed by immunoblotting for phosphorylated STING, TBK-1, IRF3, and NF-kB, or their unphosphorylated controls, or actin as a loading control. Densitometry analysis for phosphorylated STING (p-STING) and STING proteins (3H) is also shown. Results are representative (3G) or mean±SEM (3H) from 3 repeats. One-way ANOVA, and Tukey HSD test *P<0.05.
Splenocytes were isolated from the spleens of unchallenged C57BL/6 WT or STING-KO mice by meshing against a grid. Peritoneal macrophages were isolated from mice undergoing peritonitis for 66 hr by washing with 5 ml PBS. The cellular exudate was stained with phycoerythrin (PE)-conjugated anti-F4/80 antibodies (bioLegend, CA, USA) and macrophages were isolated using magnetic beads (STEMCELL Technologies Inc, Vancouver, Canada). Isolated splenocytes or macrophages (0.5-1×10^6 cells per well) were incubated with 50-5,000 nM of individual substances or pooled clusters thereof. Then, the cells were treated with vehicle or 5-10 μM DMXAA (Cayman Chemical, MI, USA) to activate STING. After 24 hr, culture supernatants were collected and evaluated for levels of: TNFα, IFN-β and/or IL-10 using, standard ELISA (BioLegend, CA, USA).
To test which cluster(s) included compounds that modulate STING-mediated cytokine production, wild-type (WT) or STING knockout (−/−) splenocytes were incubated with the selective murine STING agonist DMXAA alone or with 5-500 nM of the pooled individual compounds in each cluster as indicated.
Next, the individual compounds in clusters 1 and 9 were tested at 50-5,000 nM. The first experiment was performed in resting splenocytes as detailed above.

[2] = biological target: T2, STING (Homo sapiens, UniProt Q86WV6); test: Cytokine expression and STING signaling in PMA-differentiated U937 macrophages; type: cell-based; conditions: 50 nM, compared with c-GAMP 1 μg/ml
T2 construct: endogenous in cells; host or cells: U937 cells differentiated with PMA
T2 sequence (Q86WV6 whole entry H232R): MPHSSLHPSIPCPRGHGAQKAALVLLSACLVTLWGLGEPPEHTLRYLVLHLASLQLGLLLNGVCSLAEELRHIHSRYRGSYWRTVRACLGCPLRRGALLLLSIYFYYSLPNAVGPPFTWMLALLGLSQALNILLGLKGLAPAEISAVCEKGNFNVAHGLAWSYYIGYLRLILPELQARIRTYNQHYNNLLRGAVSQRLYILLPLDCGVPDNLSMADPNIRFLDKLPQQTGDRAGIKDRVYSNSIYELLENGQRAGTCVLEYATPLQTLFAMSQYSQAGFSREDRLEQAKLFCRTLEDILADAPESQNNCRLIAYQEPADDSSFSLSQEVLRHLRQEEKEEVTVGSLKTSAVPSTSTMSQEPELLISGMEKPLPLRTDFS
Procedure: FIGS. 8A-8G include graphs and an image showing that compound 2.1 activates cytokine expression and STING signaling in human macrophages in a similar fashion to cGAMP. Human monocytes of the U937 cell line were treated with phorbol 12-myristate 13-acetate (PMA; 50 ng/ml) for 48 hours. Then, differentiated macrophages (4×10^6 cells) were treated with c-di-GMP (10 μg/ml), c-GAMP (1 μg/ml), compound 2.1 (50 nM) or vehicle for 8 (8A-8F) or 2 (8G) hours. Cells (8A-8D, and 8G) or culture supernatants (8E-8F), were collected and analyzed by RT-PCR, ELISA, and immunoblotting for: TNFα (8A), IL-6 (8B), IL-10 (8C), IFN-β (8D), IL-10 (8E), and TNFα (8F), or STING-IFN-β-RGS2 pathway proteins and actin as a loading control (8G). Results are representative mean±SEM from 3 experiments. One-way ANOVA, and Tukey HSD test ** P≤0.01, P<0.001, **** P≤0.0001.

[3] = individual compounds 50-5,000 nM + DMXAA 5-10 μM, overnight

## c1ccc(CSc2nnc(CCCCCCCCc3nnc(SCc4ccccc4)o3)o2)cc1 [Compound 2.1, 2-(benzylsulfanyl)-5-{8-[5-(benzylsulfanyl)-1,3,4-oxadiazol-2-yl]octyl}-1,3,4-oxadiazole]
[1]; at 5,000 nM, resting splenocytes
  STING inhibition (ranking): Best STING Inhibitors
[1]; individual compounds 50-5,000 nM + DMXAA 10 μM, overnight
  IFN-beta secretion: most potent inducer; also recorded: promote
[1]; [3]
  IL-10 secretion: most potent inducer; also recorded: promote
  TNFα secretion: doing so at lower concentrations; also recorded: inhibit
[1]; summary over various cell types, DMXAA stimulation
  Mode of action on STING (overall): biased agonists
[2]; 2 hours
  STING signaling (STING-IFN-β-RGS2 pathway proteins): activates
[2]; 8 hours
  Cytokine expression (TNFα, IL-6, IL-10, IFN-β): activates

Reference: patent publication US20250302798A1, “STING INHIBITORS AND USE THEREOF” (CARMEL HAIFA UNIVERSITY ECONOMIC CORPORATION LTD., priority 2022, published 2025)
